Source: US20260285855A1, “HETEROARYL DERIVATIVES AS DDRS INHIBITORS” (CHIESI FARMACEUTICI S.P.A., priority 2023, published 2026)
Where two headings read alike, the source gives them in different places.

How the values were obtained:
DDR1 = target: T1, DDR1 (Homo sapiens, UniProt Q08345); assay: LanthaScreen Europium Kinase Binding assay, DDR1
T1 construct: purchased Carna Biosciences
Experimental: (§1) DDR1 and DDR2 binding assays were performed using Life Technologies LanthaScreen™ Europium Kinase Binding assay. […] IC50 values were determined in GraphPad Prism 7.0 software, using 4 parameter model: log (inhibitor) vs. response. IC50 values were converted in Ki using the Cheng-Prusoff equation (Ki-IC50/(1+ [Tracer]/Kd).

DDR2 = target: T2, DDR2 (Homo sapiens, UniProt Q16832); assay: LanthaScreen Europium Kinase Binding assay, DDR2
T2 construct: purchased Life Technologies
T2 sequence (Q16832 22-855): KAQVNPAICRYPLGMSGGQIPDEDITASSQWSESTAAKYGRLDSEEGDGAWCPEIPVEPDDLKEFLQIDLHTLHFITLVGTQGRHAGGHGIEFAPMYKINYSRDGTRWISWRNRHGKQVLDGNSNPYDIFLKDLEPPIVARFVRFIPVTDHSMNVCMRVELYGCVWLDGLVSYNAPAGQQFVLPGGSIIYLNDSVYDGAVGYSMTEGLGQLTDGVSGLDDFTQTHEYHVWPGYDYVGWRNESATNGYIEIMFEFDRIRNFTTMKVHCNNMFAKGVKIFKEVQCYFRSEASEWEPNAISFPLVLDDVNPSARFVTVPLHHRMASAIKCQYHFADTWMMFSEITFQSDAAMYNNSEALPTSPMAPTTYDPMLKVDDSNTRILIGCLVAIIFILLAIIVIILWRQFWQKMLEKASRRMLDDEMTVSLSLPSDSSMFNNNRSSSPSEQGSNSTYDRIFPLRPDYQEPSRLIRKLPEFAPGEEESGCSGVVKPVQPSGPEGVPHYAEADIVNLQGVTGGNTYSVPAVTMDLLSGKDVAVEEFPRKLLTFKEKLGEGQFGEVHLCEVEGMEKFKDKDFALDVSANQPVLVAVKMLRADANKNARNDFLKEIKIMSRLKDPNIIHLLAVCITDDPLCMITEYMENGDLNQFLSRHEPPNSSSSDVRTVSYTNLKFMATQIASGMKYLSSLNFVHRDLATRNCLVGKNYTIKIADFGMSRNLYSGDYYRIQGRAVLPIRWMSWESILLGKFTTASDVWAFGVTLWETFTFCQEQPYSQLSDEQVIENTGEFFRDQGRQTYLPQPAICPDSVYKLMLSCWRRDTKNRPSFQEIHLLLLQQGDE
Experimental: as §1

[1] = 5 nM DDR1, 20 nM Kinase Tracer 178, 1 h at rt, Ki from IC50 by Cheng-Prusoff, read-out: Ki DDR1
[2] = 5 nM DDR2, 10 nM Kinase Tracer 178, 1 h at rt, Ki from IC50 by Cheng-Prusoff, read-out: Ki DDR2
[3] = same binding assay, numeric values
[4] = same binding assay, numeric values, read-out: DDR1 Ki
[5] = same binding assay, numeric values, read-out: DDR2 Ki

T1 sequence (Q08345 19-913): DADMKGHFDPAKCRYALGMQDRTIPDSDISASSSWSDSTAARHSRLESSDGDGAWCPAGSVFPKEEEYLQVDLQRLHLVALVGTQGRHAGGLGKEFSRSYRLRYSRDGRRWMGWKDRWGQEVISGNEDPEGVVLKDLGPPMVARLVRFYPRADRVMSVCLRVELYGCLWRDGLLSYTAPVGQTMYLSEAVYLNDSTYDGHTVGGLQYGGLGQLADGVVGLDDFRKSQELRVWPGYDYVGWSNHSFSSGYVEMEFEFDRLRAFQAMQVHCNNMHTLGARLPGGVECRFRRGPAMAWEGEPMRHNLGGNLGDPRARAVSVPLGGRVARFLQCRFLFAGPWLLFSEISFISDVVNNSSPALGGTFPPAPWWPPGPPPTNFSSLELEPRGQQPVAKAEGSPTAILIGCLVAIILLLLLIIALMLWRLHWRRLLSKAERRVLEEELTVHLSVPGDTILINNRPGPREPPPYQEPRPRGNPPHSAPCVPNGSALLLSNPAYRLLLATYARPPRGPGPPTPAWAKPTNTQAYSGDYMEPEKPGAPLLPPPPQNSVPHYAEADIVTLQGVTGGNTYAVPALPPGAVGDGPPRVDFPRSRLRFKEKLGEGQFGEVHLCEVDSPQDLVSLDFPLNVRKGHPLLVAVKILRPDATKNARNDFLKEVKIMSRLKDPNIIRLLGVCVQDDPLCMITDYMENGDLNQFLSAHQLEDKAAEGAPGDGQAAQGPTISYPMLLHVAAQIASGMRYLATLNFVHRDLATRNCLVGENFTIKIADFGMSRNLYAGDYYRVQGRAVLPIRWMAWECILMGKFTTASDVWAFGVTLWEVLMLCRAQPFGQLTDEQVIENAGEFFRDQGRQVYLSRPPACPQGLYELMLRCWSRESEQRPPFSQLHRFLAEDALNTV

| Ki (DDR1; [1]) | Ki (DDR2; [2]) | DDR1 Ki (nM) (DDR1; [3]) | Ki (DDR1; [4]) | DDR2 Ki (nM) (DDR2; [3]) | Ki (DDR2; [5]) | SMILES |
| --- | --- | --- | --- | --- | --- | --- |
| < 5 nM | < 5 nM |  |  |  |  | CN(C(=O)Nc1cc(C(F)(F)F)cc(Br)n1)C1CC2(C1)CN(C(=O)c1cnn3ccn(C)c13)C2 [Example 308, 3-(6-bromo-4-(trifluoromethyl)pyridin-2-yl)-1-methyl-1-(2-(1-methyl-1H-imidazo[1,2-b]pyrazole-7-carbonyl)-2-azaspiro[3.3]heptan-6-yl)urea] |
| < 5 nM | 5 to 25 nM |  |  |  |  | CCc1ncc(C(F)(F)F)cc1NC(=O)NC1CC2(C1)CN(C(=O)c1cnn3ccn(C)c13)C2 [Example 309, 1-(2-ethyl-5-(trifluoromethyl)pyridin-3-yl)-3-(2-(1-methyl-1H-imidazo[1,2-b]pyrazole-7-carbonyl)-2-azaspiro[3.3]heptan-6-yl)urea] |
| 5 to 25 nM | 25 to 100 nM |  |  |  |  | CCc1ncc(C(F)(F)F)cc1NC(=O)N(C)C1CC2(C1)CN(C(=O)c1cnn3ccn(C)c13)C2 [Example 310, 3-(2-ethyl-5-(trifluoromethyl)pyridin-3-yl)-1-methyl-1-(2-(1-methyl-1H-imidazo[1,2-b]pyrazole-7-carbonyl)-2-azaspiro[3.3]heptan-6-yl)urea] |
| < 5 nM | 5 to 25 nM |  |  |  |  | Cn1ccn2ncc(C(=O)N3CC4(CC(OC(=O)Nc5cc(C(F)(F)F)cnn5)C4)C3)c12 [Example 311, 2-(1-methyl-1H-imidazo[1,2-b]pyrazole-7-carbonyl)-2-azaspiro[3.3]heptan-6-yl(5-(trifluoromethyl)pyridazin-3-yl)carbamate] |
| < 5 nM | 5 to 25 nM |  |  |  |  | COc1c(CO)cc(C(F)(F)F)cc1NC(=O)NC1CC2(C1)CN(c1cnc3[nH]ncc3c1)C2 [Example 312, 1-(2-(1H-pyrazolo[3,4-b]pyridin-5-yl)-2-azaspiro[3.3]heptan-6-yl)-3-(3-(hydroxymethyl)-2-methoxy-5-(trifluoromethyl)phenyl)urea] |
|  |  | did not show a binding affinity | > 500 nM | did not show a binding affinity | > 500 nM | O=C(NC1CC2(C1)CN(C(=O)c1cnn3ccncc13)C2)c1cccc(C(F)(F)F)c1 [Example C1, N-(2-(pyrazolo[1,5-a]pyrazine-3-carbonyl)-2-azaspiro[3.3]heptan-6-yl)-3-(trifluoromethyl)benzamide, reference compound] |
|  |  | did not show a binding affinity | > 500 nM | did not show a binding affinity | > 500 nM | O=C(Cc1cccc(C(F)(F)F)c1)NC1CC2(C1)CN(C(=O)c1cnn3ccncc13)C2 [Example C2, N-(2-(pyrazolo[1,5-a]pyrazine-3-carbonyl)-2-azaspiro[3.3]heptan-6-yl)-2-(3-(trifluoromethyl)phenyl)acetamide, reference compound] |
|  |  | did not show a binding affinity | > 500 nM | did not show a binding affinity | > 500 nM | O=C(NC1CC2(C1)CN(C(=O)Nc1cccc(C(F)(F)F)c1)C2)c1cnn2ccncc12 [Example C3, N-(2-((3-(trifluoromethyl)phenyl)carbamoyl)-2-azaspiro[3.3]heptan-6-yl) pyrazolo[1,5-a]pyrazine-3-carboxamide, reference compound] |
